# Literature values in paper PMC2810551 (Chemistry & biology, 2009).
# Test system: CD4+ T cells expressing the MBP Ac1-11 specific Vα2.3/Vβ8.2 TCR
# Conditions: immunization with MBP Ac1-11; B10.PL mice; ref [6]
substance,measurement,value
Ac-ASQKRPSQRSK [MBP Ac1-11],activation and expansion of specific CD4+ T cells,results in activation and expansion of CD4+ T cells expressing the MBP Ac1-11 specific Vα2.3/Vβ8.2 TCR
